Measured values taken from US8729122B2, “Pharmaceutical and nutraceutical compositions of abscisic acid” (Valent BioSciences Corporation, priority 2010, dated 2014).
“And” between values parts separate entries of the source, which are not always exact repeats. Identical values can stand only once.

Tests used:
rats [1] = experiment: 21-day Dermal Toxicity Study, removal of adhesive bandage; type: in vivo; conditions: for Total No. of Removals (adhesive bandage), individual animals: 3 weeks
Method: Animals were allocated to dose groups and treated as follows:
Animals were dosed daily by dermal administration, with an exposure period of 6 hours, 7 days/week for a period of 3 weeks.
The lumbar region of the animals was clipped to expose the skin (approximately 6×6 cm) with the test formulation being spread evenly over this area. A dressing of foil gauze and self adhesive bandage was wrapped around the torso to prevent oral ingestion. Following 6 hours of exposure the dressings were removed and the dose area wiped clean with a cloth dampened with distilled water.
During the dosing period it was noted that some animals were able to get the adhesive bandage off during the 6 hour exposure period.

rats [2] = experiment: Two Generation Reproduction Toxicity Study (dietary S-ABA); type: in vivo
Method: Two Generation Reproduction Toxicity Study
This study was conducted to determine the potential adverse effects of the test substance on reproduction in a 2-generation study. This included determining the effects of the test substance on male and female reproductive processes, including gonadal function, estrous cyclicity, mating behavior, conception, gestation, parturition, lactation, weaning, and on growth and development of the offspring. A minimum of 1 litter was produced in each generation.
Three groups of male and female were offered S-ABA, continuously in the diet for at least 70 consecutive days prior to mating. Target tests substance concentrations were 10,000, 15,000, and 20,000 ppm for the F0 and F1 generations. A concurrent control group of 30 rats/sex was offered the basal diet continuously throughout the study. F0 animals were approximately 7 weeks of age at the initiation of test diet administration. The test diet was administered to the offspring selected to become the F1 generation following weaning. The F0 and F1 males continued to receive the test substance throughout mating and continuing through the day prior to euthanasia. The F0 and F1 females continued to receive the test substance throughout mating, gestation, and lactation, and through the day of euthanasia. For both generations (F1 and F2), 8 pups per litter (4 per sex, when possible) were selected to reduce the variability among the litters. Offspring (30/sex/group, if possible) from the pairing of the F0 animals were selected to constitute the F1 generation.
All animals were observed twice daily for appearance and behavior. Clinical observations, body weights, and food consumption were recorded at appropriate intervals for males throughout the study and for females prior to mating and during gestation and lactation. All F0 and F1 females were allowed to deliver and rear their pups until weaning on lactation day 21. Clinical observations, body weights, and sexes for F1 and F2 pups were recorded at appropriate intervals. Nonselected F1 pups and all surviving F2 pups were necropsied. Selected organs were weighed from 1 pup/sex/litter from F1 and F2 pups that were necropsied. Each surviving F0 and F1 parental animal received a complete detailed gross necropsy following the completion of weaning of the F1 and F2 pups, respectively; selected organs were weighed. Spermatogenic endpoints were recorded for all F0 and F1 males, and ovarian primordial follicle counts were recorded for all F0 and F1 females in the control and high-exposure groups and all F0 and F1 females suspected of reduced fertility. Designated tissues from all F0 and F1 parental animals were examined microscopically.

Q: With `CC1=CC(=O)CC(C)(C)[C@@]1(O)/C=C/C(C)=C\C(=O)O` [S-ABA, (S)-(+)-abscisic acid] as the compound, how does the “ability to remove the adhesive bandage” value (rats [1]; female rats in the treatment group) read?
A: The value was “much better at removing the adhesive bandage”.

Q: And the “Total No. of Removals (adhesive bandage), individual animals” value (“Total No. of Removals (adhesive bandage)” for short) (rats [1]; group 2F, females, 100 mg/kg/day dermal, 100 mg/kg/day)?
A: The value was 4 and 1.

Q: What about the “Total No. of Removals (adhesive bandage)” value (rats [1]; group 2M, males, 100 mg/kg/day dermal) of the same compound?
A: The value was 1.

Q: And the “Total No. of Removals (adhesive bandage)” value (rats [1]; group 3F, females, 300 mg/kg/day dermal, 300 mg/kg/day)?
A: Its value is 2 and 3.

Q: What about the “Total No. of Removals (adhesive bandage)” value (rats [1]; group 4F, females, 1000 mg/kg/day dermal, 1000 mg/kg/day) of the same compound?
A: The value was 3 and 7 and 6.

Q: What about the “Total No. of Removals (adhesive bandage)” value (rats [1]; group 4M, males, 1000 mg/kg/day dermal) of the same compound?
A: Its value is 1.

Q: And the “SPERM PRODUCTION RATE, mean” value (rats [2]; 10,000 PPM)?
A: Its value is 10.3 MILLIONS/GRAM/DAY.

Q: What about the “Mean Live Offspring Born (per litter)” value (rats [2]; 10,000 ppm) of the same compound?
A: Its value is 12.3.

Q: What about the “Offspring Born” value (rats [2]; 10,000 ppm) of the same compound?
A: The value was 322.

Q: What about the “Offspring FOUND DEAD” value (rats [2]; 10,000 ppm) of the same compound?
A: The value was 4.

Q: And the “POSTNATAL SURVIVAL, BIRTH-4 (PRE-SELECT), mean” value (rats [2]; 10,000 ppm)?
A: The value was 98.6 % PER LITTER.

Q: What about the “POSTNATAL SURVIVAL, POSTNATAL DAY 0 (RELATIVE TO # BORN), mean” value (rats [2]; 10,000 ppm) of the same compound?
A: The value was 99.7 % PER LITTER.

Q: What about the “POSTNATAL SURVIVAL, POSTNATAL DAY 0-1, mean” value (rats [2]; 10,000 ppm) of the same compound?
A: The value was 100.0 % PER LITTER.

Q: What about the “POSTNATAL SURVIVAL, POSTNATAL DAY 1-4 (PRE-SELECTION), mean” value (rats [2]; 10,000 ppm) of the same compound?
A: Its value is 98.9 % PER LITTER.

Q: And the “POSTNATAL SURVIVAL, POSTNATAL DAY 4 (POST-SELECT)-21, mean” value (rats [2]; 10,000 ppm)?
A: The value was 99.5 % PER LITTER.

Q: And the “POSTNATAL SURVIVAL, POSTNATAL DAY 4 (POST-SELECTION)-7, mean” value (rats [2]; 10,000 ppm)?
A: The value was 99.5 % PER LITTER.

Q: And the “POSTNATAL SURVIVAL, POSTNATAL DAY 7-14, mean” value (rats [2]; 10,000 ppm)?
A: The value was 100.0 % PER LITTER.

Q: And the “POSTNATAL SURVIVAL, POSTNATAL DAY 14-21, mean” value (rats [2]; 10,000 ppm)?
A: The value was 100.0 % PER LITTER.

Q: And the “OFFSPRING WEIGHT, mean” value (rats [2]; 10,000 ppm, female, postnatal day 1)?
A: The value was 6.6 grams.

Q: What about the “OFFSPRING WEIGHT, mean” value (rats [2]; 10,000 ppm, female, postnatal day 4) of the same compound?
A: Its value is 9.1 grams.

Q: What about the “OFFSPRING WEIGHT, mean” value (rats [2]; 10,000 ppm, female, postnatal day 7) of the same compound?
A: Its value is 14.3 grams.

Q: And the “OFFSPRING WEIGHT, mean” value (rats [2]; 10,000 ppm, female, postnatal day 14)?
A: The value was 29.9 grams.

Q: And the “OFFSPRING WEIGHT, mean” value (rats [2]; 10,000 ppm, female, postnatal day 21)?
A: Its value is 45.5 grams.

Q: What about the “OFFSPRING WEIGHT, mean” value (rats [2]; 10,000 ppm, male, postnatal day 1) of the same compound?
A: The value was 7.1 grams.

Q: And the “OFFSPRING WEIGHT, mean” value (rats [2]; 10,000 ppm, male, postnatal day 4)?
A: The value was 9.7 grams.

Q: And the “OFFSPRING WEIGHT, mean” value (rats [2]; 10,000 ppm, male, postnatal day 7)?
A: Its value is 15.2 grams.

Q: What about the “OFFSPRING WEIGHT, mean” value (rats [2]; 10,000 ppm, male, postnatal day 14) of the same compound?
A: The value was 30.9 grams.

Q: What about the “OFFSPRING WEIGHT, mean” value (rats [2]; 10,000 ppm, male, postnatal day 21) of the same compound?
A: The value was 47.9 grams.

Q: What about the offspring mortality (rats [2]; 10,000 ppm, control 4.57%) of the same compound?
A: Its offspring mortality is 1.24%.

Q: What about the “SPERM PRODUCTION RATE, mean” value (rats [2]; 15,000 PPM) of the same compound?
A: The value was 10.7 MILLIONS/GRAM/DAY.

Q: What about the “Mean Live Offspring Born (per litter)” value (rats [2]; 15,000 ppm) of the same compound?
A: The value was 13.1.

Q: What about the “Offspring Born” value (rats [2]; 15,000 ppm) of the same compound?
A: The value was 375.

Q: And the “Offspring FOUND DEAD” value (rats [2]; 15,000 ppm)?
A: Its value is 15.

Q: What about the “POSTNATAL SURVIVAL, BIRTH-4 (PRE-SELECT), mean” value (rats [2]; 15,000 ppm) of the same compound?
A: The value was 93.2 % PER LITTER.

Q: And the “POSTNATAL SURVIVAL, POSTNATAL DAY 0 (RELATIVE TO # BORN), mean” value (rats [2]; 15,000 ppm)?
A: Its value is 96.1 % PER LITTER.

Q: And the “POSTNATAL SURVIVAL, POSTNATAL DAY 0-1, mean” value (rats [2]; 15,000 ppm)?
A: The value was 98.5 % PER LITTER.

Q: What about the “POSTNATAL SURVIVAL, POSTNATAL DAY 1-4 (PRE-SELECTION), mean” value (rats [2]; 15,000 ppm) of the same compound?
A: The value was 98.5 % PER LITTER.

Q: And the “POSTNATAL SURVIVAL, POSTNATAL DAY 4 (POST-SELECT)-21, mean” value (rats [2]; 15,000 ppm)?
A: The value was 98.2 % PER LITTER.

Q: And the “POSTNATAL SURVIVAL, POSTNATAL DAY 4 (POST-SELECTION)-7, mean” value (rats [2]; 15,000 ppm)?
A: Its value is 99.6 % PER LITTER.

Q: What about the “POSTNATAL SURVIVAL, POSTNATAL DAY 7-14, mean” value (rats [2]; 15,000 ppm) of the same compound?
A: The value was 98.7 % PER LITTER.

Q: What about the “POSTNATAL SURVIVAL, POSTNATAL DAY 14-21, mean” value (rats [2]; 15,000 ppm) of the same compound?
A: Its value is 100.0 % PER LITTER.

Q: And the “OFFSPRING WEIGHT, mean” value (rats [2]; 15,000 ppm, female, postnatal day 1)?
A: Its value is 6.6 grams.

Q: What about the “OFFSPRING WEIGHT, mean” value (rats [2]; 15,000 ppm, female, postnatal day 4) of the same compound?
A: Its value is 8.8 grams.

Q: What about the “OFFSPRING WEIGHT, mean” value (rats [2]; 15,000 ppm, female, postnatal day 7) of the same compound?
A: The value was 14.0 grams.

Q: What about the “OFFSPRING WEIGHT, mean” value (rats [2]; 15,000 ppm, female, postnatal day 14) of the same compound?
A: The value was 29.8 grams.

Q: And the “OFFSPRING WEIGHT, mean” value (rats [2]; 15,000 ppm, female, postnatal day 21)?
A: Its value is 45.8 grams.

Q: What about the “OFFSPRING WEIGHT, mean” value (rats [2]; 15,000 ppm, male, postnatal day 1) of the same compound?
A: Its value is 6.9 grams.

Q: What about the “OFFSPRING WEIGHT, mean” value (rats [2]; 15,000 ppm, male, postnatal day 4) of the same compound?
A: The value was 9.3 grams.

Q: What about the “OFFSPRING WEIGHT, mean” value (rats [2]; 15,000 ppm, male, postnatal day 7) of the same compound?
A: Its value is 14.7 grams.

Q: And the “OFFSPRING WEIGHT, mean” value (rats [2]; 15,000 ppm, male, postnatal day 14)?
A: Its value is 30.8 grams.

Q: And the “OFFSPRING WEIGHT, mean” value (rats [2]; 15,000 ppm, male, postnatal day 21)?
A: Its value is 47.8 grams.

Q: And the “SPERM PRODUCTION RATE, mean” value (rats [2]; 20,000 PPM)?
A: The value was 10.5 MILLIONS/GRAM/DAY.

Q: What about the “Mean Live Offspring Born (per litter)” value (rats [2]; 20,000 ppm) of the same compound?
A: Its value is 12.3.
